The data set concerns Cyp1a2 mRNA in liver. The data set can be described thus: Cyp1a2 gene expression in liver (real-time PCR). The class given is in vivo, female C57BL/6 mice. Conditions: for BMR20TCDD Liver Cyp1a2 mRNA: 3 days after single oral dose; for REP Liver Cyp1a2 mRNA: relative to TCDD. As for the experimental part: Animals. Eight-week-old female C57BL/6 mice (Harlan laboratories, Venray, the Netherlands) were randomly assigned to treatment groups (six animals per group) and allowed to acclimate for 1.5 weeks. The animals were housed in groups in standard cages and conditions (23 ± 2°C, 50–60% relative humidity, 12-hr dark/light cycle) with free access to food and water. Mice received a single dose of test compound by oral gavage at a dosing volume of 10 mL/kg body weight (BW). Mice treated with corn oil vehicle (10 mL/kg BW) served as controls. For each congener, five different doses were administered, ranging from 0.5–100 μg/kg BW (TCDD) to 5,000–500,000 µg/kg BW (PCB-153). Detailed information on doses is provided in Supplemental Material, Table S1 (http://dx.doi.org/10.1289/ehp.1206336). On day 3 after dosing, animals were euthanized by CO2/O2 asphyxiation, and blood was immediately collected from the abdominal aorta. The liver, thymus, spleen, and adipose tissue were removed, weighed (liver, thymus, and spleen), snap frozen, and stored at –80°C. All animal treatments were performed with permission of the Animal Ethical Committee (DEC Utrecht) and performed according to the [Law on Animal Experiments (1977)]. Animals were treated humanely and with regard for alleviation of suffering.
RNA isolation and quantitative real-time polymerase chain reaction (PCR). Total RNA was isolated from liver and PBLs using a QIAGEN RNeasy kit (QIAGEN). Purity and concentration of the isolated RNA was determined by measuring the absorbance ratio at 260/280 nm and 230/260 nm with a Nanodrop 2000 spectrophotometer (Thermo Scientific, Asheville, NC, USA). RNA was reverse transcribed to complementary DNA (cDNA) using the iScript cDNA synthesis Kit (Bio-Rad, Veenendaal, the Netherlands). Quantitative real-time PCR analyses were performed using the iQ Real-Time PCR Detection System with SYBR green (Bio-Rad). Amplification reactions were set up with […] containing 12.5 μL iQ SYBR Green Supermix (Bio-rad), 0.5 μL distilled H2O, 1 μL (10 μM) forward primer, 1 μL (10 μM) reverse primer, and 10 μL first strand cDNA (10X diluted). Primer sequences were as follows: Cyp1a1: forward-5´-GGTTAACCATGACCGGGAACT-3´ and reverse-5´-TGCCCAAACCAAAGAGAGTGA-3´ ([Schulz et al. 2012]); Cyp1a2: forward-5´-ACATTCCCAAGGAGCGCTGTATCT-3´ and reverse-5´-GTCGATGGCCGAGTTGTTATTGGT-3´ ([Flaveny et al. 2010]); Cyp1b1: forward-5´-GTGGCTGCTCATCCTCTTTACC-3´ and reverse-5´-CCCACAACCTGGTCCAACTC-3´ ([Berge et al. 2004]); β-actin: forward-5´-ATGCTCCCCGGGCTGTAT-3´ and reverse-5´-CATAGGAGTCCTTCTGACCCATTC-3´ ([Schulz et al. 2012]). All primers were run through the National Center for Biotechnology Information Primer-BLAST database (http://www.ncbi.nlm.nih.gov/tools/primer-blast/) to confirm specificity and validate for optimal annealing temperature (60°C for all primers) and efficiency. The efficiency of all primer pairs was 98–102% (tested at 60°C). The following program was used for denaturation and amplification of cDNA: 3 min at 95°C, followed by 40 cycles of 15 sec at 95°C and 45 sec at 60°C. Gene expression for each sample was expressed as threshold cycle (Ct), normalized to the reference gene β-actin (ΔCt). We calculated fold induction relative to the control group.
Data analysis. We obtained concentration–response curves using a sigmoidal dose–response nonlinear regression curve fit with variable slope (GraphPad Prism 6.01; GraphPad Software Inc., San Diego, CA, USA):
In this Hill equation, y is the dependent variable (EROD activity or fold induction of mRNA levels), x the independent variable (administered or systemic dose), E0 is the estimated background response level, Emax is the maximum response, b is the estimated median effective concentration (EC50), and n is the shaping parameter of the Hill curve.
Using the congener-specific BMR20TCDD concentration, REPs were calculated relatively to TCDD: […]
For orientation: Real-time PCR tracks product formation cycle by cycle.

The mark [1] stands for this setting: dose metric Adm dose (µg/kg BW).
The mark [2] stands for this setting: dose metric Syst adipose (ng/g lipid).
[3] abbreviates: dose metric Syst liver (ng/g lipid).
Setting [4] is: dose metric Syst liver (ng/g liver).
[5] abbreviates: dose metric Syst plasma (ng/g lipid).

Turning to `Clc1cc2oc3c(Cl)c(Cl)c(Cl)cc3c2cc1Cl` [Congener 4-PeCDF, 2,3,4,7,8-pentachlorodibenzofuran], the “BMR20TCDD Liver Cyp1a2 mRNA” value was determined as 8.83 µg/kg BW (dose metric Adm dose), 6.53 ng/g lipid (dose metric Syst adipose) and 8.01 ng/g lipid (dose metric Syst plasma). In addition, the “REP Liver Cyp1a2 mRNA” value turned out to be 0.05 under setting [1]; 0.3 under setting [2]; 0.03 under setting [3]; 0.04 under setting [4]; 0.2 under setting [5].
With `Clc1ccc(-c2cc(Cl)c(Cl)c(Cl)c2Cl)cc1Cl` [PCB-156, 2,3,3´,4,4´,5-hexachlorobiphenyl], the “BMR20TCDD Liver Cyp1a2 mRNA” value runs as follows: (dose metric Adm dose) 12,085 µg/kg BW; (dose metric Syst adipose) 22,134 ng/g lipid; (dose metric Syst plasma) 60,702 ng/g lipid. The “REP Liver Cyp1a2 mRNA” value reads like this: under setting [1], 0.00003; under setting [2], 0.00008; under setting [3], 0.0003; under setting [4], 0.0006; under setting [5], 0.00003.
For the compound `Clc1cc2c(cc1Cl)Oc1cc(Cl)c(Cl)cc1O2` [TCDD, 2,3,7,8-tetrachlorodibenzodioxin, reference compound], the “BMR20TCDD Liver Cyp1a2 mRNA” value turned out to be 0.41 µg/kg BW (dose metric Adm dose), 1.73 ng/g lipid (dose metric Syst adipose) and 1.85 ng/g lipid (dose metric Syst plasma). The “REP Liver Cyp1a2 mRNA” value was found to be 1 under setting [1]; 1 under setting [2]; 1 under setting [3]; 1 under setting [4]; 1 under setting [5].
Take `Clc1cc2c(cc1Cl)Oc1c(cc(Cl)c(Cl)c1Cl)O2` [PeCDD, 1,2,3,7,8-pentachlorodibenzodioxin]: the “BMR20TCDD Liver Cyp1a2 mRNA” value by setting is: (dose metric Adm dose) 0.56 µg/kg BW; (dose metric Syst adipose) 1.20 ng/g lipid; (dose metric Syst plasma) 2.36 ng/g lipid. Also, the “REP Liver Cyp1a2 mRNA” value by setting is: under setting [1], 0.7; under setting [2], 1; under setting [3], 0.5; under setting [4], 0.6; under setting [5], 0.8.
Turning to `Clc1ccc(-c2cc(Cl)c(Cl)cc2Cl)cc1Cl` [PCB-118, 2,3´,4,4´,5-pentachlorobiphenyl], the “BMR20TCDD Liver Cyp1a2 mRNA” value (dose metric Adm dose) is on record as 15,522 µg/kg BW, the “BMR20TCDD Liver Cyp1a2 mRNA” value (dose metric Syst adipose) is 117,517 ng/g lipid and the “BMR20TCDD Liver Cyp1a2 mRNA” value (dose metric Syst plasma) is listed as 103,230 ng/g lipid. The “REP Liver Cyp1a2 mRNA” value is, setting by setting: under setting [1], 0.00003; under setting [2], 0.00001; under setting [3], 0.0002; under setting [4], 0.0003; under setting [5], 0.00002.
`Clc1ccc(-c2cc(Cl)c(Cl)c(Cl)c2)cc1Cl` [PCB-126, 3,3´,4,4´,5-pentachlorobiphenyl]: the “BMR20TCDD Liver Cyp1a2 mRNA” value is, setting by setting: (dose metric Adm dose) 87.4 µg/kg BW; (dose metric Syst adipose) 120 ng/g lipid; (dose metric Syst plasma) 135 ng/g lipid. The “REP Liver Cyp1a2 mRNA” value under setting [1] came to 0.005; the “REP Liver Cyp1a2 mRNA” value under setting [2] was determined as 0.01; the “REP Liver Cyp1a2 mRNA” value under setting [3] was determined as 0.002; the “REP Liver Cyp1a2 mRNA” value under setting [4] is 0.003; the “REP Liver Cyp1a2 mRNA” value under setting [5] is 0.01.
